Measurements: PubChem BioAssay AID2060622 (Molecular Pharmacology Branch, DTP, NCI, 2025)

Test system: 242566-281-R-J2-PDC complex spheroid viability
Assay: Anticancer human tumor 242566-281-R-J2-PDC patient-derived pancreatic carcinoma cell line growth inhibition [CLK]
Settings: for IC50: curve of first compound; for viability, T/C: stronger effect = lower value
Excerpt: A high-throughput screen of multi-cell type tumor spheroids was designed to identify active combinations of […] and targeted small molecules. Complex spheroids include a stromal component modeled by human endothelial cells (HUVEC) and fibroblasts modeled by human mesenchymal stem cells (MSCs). The concentration ranges selected for each drug and investigational agent were based upon clinically achievable concentrations if the clinical Cmax of the agent was known.
Compounds. The drugs and investigational agents: cirtuvivint (SM08502; NSC835563), CC-671 (NSC850746), vemurafenib (NSC761431), tapotoclax (NSC804041), sotorasib (NSC818433), adagrasib (NSC831453), MRTX-1133 (NSC836407), BAY2416964 (NSC825713), copanlisib (NSC816437), inavolisib (NSC800729), abemaciclib (NSC768073), osimertinib (NSC779217), entinostat (NSC756642), eltanexor (KPT-8602, NSC794443), venetoclax (NSC766270), ceralasertib (NSC777638), bortezomib (NSC756655), olaparib (NSC753686), talazoparib (NSC767125), alisertib (NSC759677), peposertib (NSC802822), gemcitabine (NSC613327), 5-fluorouracil (NSC19893), SN-38 (NSC673596), oxaliplatin (NSC266046), paclitaxel (NSC125973), and doxorubicin (NSC123127), were obtained from the National Cancer Institute (NCI) Developmental Therapeutics Program Chemical Repository. The FDA-approved anticancer drug set is available from the Developmental Therapeutics Program at https://dtp.cancer.gov/organization/dscb/obtaining/available plates.htm. […] The stock solutions were prepared in dimethyl sulfoxide (DMSO, Sigma-Aldrich, St. Louis, MO, cat. D2650), except for the platinum complexes which were prepared in saline (Quality Biological, Gaithersburg, MD, cat. 114-055-101), at 800-fold the tested concentration and stored at -70 degrees C prior to their use. All drugs and investigational agents were tested over a range starting from a high concentration at or near the clinical Cmax and decreasing in half-log increments. If the clinical Cmax for an agent had not been determined, the highest concentration tested was 10 microM.
Cell Culture. All cells were maintained in an incubator at 37 degrees C and 5% CO2 with 95% humidity. The PDC lines were cultured according to standard operating procedures established by the NCI PDMR. Briefly, all PDCs were thawed and cultured in Matrigel-coated flasks prepared with a working solution of 1X Ham's F-12 nutrient mix, without supplementation (Invitrogen, Waltham, MA, cat. 11765054), 100 U/mL penicillin-streptomycin (Invitrogen, cat. 15140122), and 2.5% Matrigel (Corning Inc., Corning, NY, cat. 354248) for the first three passages. The 947758-054-R-J2-PDC line was cultured in 6B/Colon 1A media, which includes advanced DMEM/F-12 (Thermo Fisher Scientific, cat. 12634028), 10 mM HEPES (Thermo Fisher Scientific, cat. 15630080), 1X GlutaMAX supplement (Thermo Fisher Scientific, cat. 35050061), 0.1 mg/mL primocin (InvivoGen, cat. ant-pm-2), 10% defined fetal bovine serum, heat inactivated (HyClone Laboratories Inc., cat. SH30070.03HI), 1.25 mM N-Acetyl-L-cysteine (Sigma-Aldrich, cat. A9165), 10 mM nicotinamide (Sigma-Aldrich, cat. N0636), 1X B-27 supplement (Thermo Fisher Scientific, cat. 17504044), 1X N-2 supplement (Thermo Fisher Scientific, cat. 17502048), and 10 microM Y-27632 dihydrochloride (Tocris Bioscience, cat. 1254). The 876862-298-R-J1-PDC was cultured in 6E media, which includes all 6B/Colon 1A media components plus 50% L-WRN conditioned media (ATCC, cat. CRL-3276), 50 ng/mL recombinant human EGF recombinant protein (hEGF; Thermo Fisher Scientific, cat. PHG0311), 10 ng/mL recombinant human fibroblast growth factor 10 (hGFG-10; PeproTech, cat. 100-26), 1 ng/mL recombinant human fibroblast growth factor 2 (hFGF-2; PeproTech, cat. 100-18B), and 1 µM prostaglandin E2 (PGE2; Tocris, cat. 2296). The 227483-062-R1-J1-PDC line was cultured in Panc media, containing all 6E components except hFGF-2, with the addition of 500 nM SB-431542 (Selleckchem, cat. S1067) and 10 nM gastrin (Tocris, cat. 3006). […]

[1] = second compound 0.0316 µM, first compound 0.0316 µM
[2] = second compound 0.0316 µM, first compound 0.1 µM
[3] = second compound 0.1 µM, first compound 0.0316 µM
[4] = second compound 0.1 µM, first compound 0.1 µM
[5] = second compound 0.316 µM, first compound 0.0316 µM
[6] = second compound 0.316 µM, first compound 0.1 µM
[7] = second compound 1 µM, first compound 0.0316 µM
[8] = second compound 1 µM, first compound 0.1 µM
[9] = second compound 3.16 µM, first compound 0.0316 µM
[10] = second compound 3.16 µM, first compound 0.1 µM
[11] = second compound 10 µM, first compound 0.0316 µM
[12] = second compound 10 µM, first compound 0.1 µM
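Also: spheroids exposed to compounds for 7 days before readout.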
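For viability, T/C in this document: 100% = DMSO vehicle control wells.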

Cn1ncnc1[C@H]1c2n[nH]c(=O)c3cc(F)cc(c23)N[C@@H]1c1ccc(F)cc1 + CN1CCN(c2cc(C(=O)Nc3cc4cc(-c5cnn(C)c5)ccc4cn3)ccn2)CC1
IC50 (second compound 0.0316 µM): > 100 nM
IC50 (second compound 0.1 µM): > 100 nM
IC50 (second compound 0.316 µM): < 0.316 nM
IC50 (second compound 1 µM): < 0.316 nM
IC50 (second compound 3.16 µM): < 0.316 nM
IC50 (second compound 10 µM): < 0.316 nM
viability, T/C (second compound 0.0316 µM, first compound 0.000316 µM): 106%
viability, T/C (second compound 0.0316 µM, first compound 0.001 µM): 96.4%
viability, T/C (second compound 0.0316 µM, first compound 0.00316 µM): 99.5%
viability, T/C (second compound 0.0316 µM, first compound 0.01 µM): 107%
viability, T/C [1]: 97.9%
viability, T/C [2]: 88%
viability, T/C (second compound 0.1 µM, first compound 0.000316 µM): 87.7%
viability, T/C (second compound 0.1 µM, first compound 0.001 µM): 87.9%
viability, T/C (second compound 0.1 µM, first compound 0.00316 µM): 89.1%
viability, T/C (second compound 0.1 µM, first compound 0.01 µM): 86.6%
viability, T/C [3]: 84.8%
viability, T/C [4]: 62.9%
viability, T/C (second compound 0.316 µM, first compound 0.000316 µM): 34%
viability, T/C (second compound 0.316 µM, first compound 0.001 µM): 35%
viability, T/C (second compound 0.316 µM, first compound 0.00316 µM): 32.3%
viability, T/C (second compound 0.316 µM, first compound 0.01 µM): 30.9%
viability, T/C [5]: 31.3%
viability, T/C [6]: 26.8%
viability, T/C (second compound 1 µM, first compound 0.000316 µM): 4.47%
viability, T/C (second compound 1 µM, first compound 0.001 µM): 4.64%
viability, T/C (second compound 1 µM, first compound 0.00316 µM): 4.59%
viability, T/C (second compound 1 µM, first compound 0.01 µM): 4.07%
viability, T/C [7]: 3.7%
viability, T/C [8]: 3.76%
viability, T/C (second compound 3.16 µM, first compound 0.000316 µM): 6.68%
viability, T/C (second compound 3.16 µM, first compound 0.001 µM): 7.67%
viability, T/C (second compound 3.16 µM, first compound 0.00316 µM): 6.68%
viability, T/C (second compound 3.16 µM, first compound 0.01 µM): 5.7%
viability, T/C [9]: 5.67%
viability, T/C [10]: 5.8%
viability, T/C (second compound 10 µM, first compound 0.000316 µM): 0.94%
viability, T/C (second compound 10 µM, first compound 0.001 µM): 1.5%
viability, T/C (second compound 10 µM, first compound 0.00316 µM): 1.24%
viability, T/C (second compound 10 µM, first compound 0.01 µM): 1.06%
viability, T/C [11]: 2.08%
viability, T/C [12]: 1.4%

CC1(C)CCC(CN2CCN(c3ccc(C(=O)NS(=O)(=O)c4ccc(NCC5CCOCC5)c([N+](=O)[O-])c4)c(Oc4cnc5[nH]ccc5c4)c3)CC2)=C(c2ccc(Cl)cc2)C1 + CN1CCN(c2cc(C(=O)Nc3cc4cc(-c5cnn(C)c5)ccc4cn3)ccn2)CC1
IC50 (second compound 0.0316 µM): 6540 nM
IC50 (second compound 0.1 µM): 6080 nM
IC50 (second compound 0.316 µM): < 31.6 nM
IC50 (second compound 1 µM): < 31.6 nM
IC50 (second compound 3.16 µM): < 31.6 nM
IC50 (second compound 10 µM): < 31.6 nM
viability, T/C [1]: 109%
viability, T/C [2]: 109%
viability, T/C (second compound 0.0316 µM, first compound 0.316 µM): 101%
viability, T/C (second compound 0.0316 µM, first compound 1 µM): 112%
viability, T/C (second compound 0.0316 µM, first compound 3.16 µM): 109%
viability, T/C (second compound 0.0316 µM, first compound 10 µM): 16.1%
viability, T/C [3]: 100%
viability, T/C [4]: 92.8%
viability, T/C (second compound 0.1 µM, first compound 0.316 µM): 93.2%
viability, T/C (second compound 0.1 µM, first compound 1 µM): 96.9%
viability, T/C (second compound 0.1 µM, first compound 3.16 µM): 107%
viability, T/C (second compound 0.1 µM, first compound 10 µM): 13.4%
viability, T/C [5]: 38.1%
viability, T/C [6]: 34%
viability, T/C (second compound 0.316 µM, first compound 0.316 µM): 31.9%
viability, T/C (second compound 0.316 µM, first compound 1 µM): 38.9%
viability, T/C (second compound 0.316 µM, first compound 3.16 µM): 36.2%
viability, T/C (second compound 0.316 µM, first compound 10 µM): 5.57%
viability, T/C [7]: 5.27%
viability, T/C [8]: 5.79%
viability, T/C (second compound 1 µM, first compound 0.316 µM): 6.15%
viability, T/C (second compound 1 µM, first compound 1 µM): 6.22%
viability, T/C (second compound 1 µM, first compound 3.16 µM): 5.21%
viability, T/C (second compound 1 µM, first compound 10 µM): 1.17%
viability, T/C [9]: 7.94%
viability, T/C [10]: 7.2%
viability, T/C (second compound 3.16 µM, first compound 0.316 µM): 8.15%
viability, T/C (second compound 3.16 µM, first compound 1 µM): 7.96%
viability, T/C (second compound 3.16 µM, first compound 3.16 µM): 6.33%
viability, T/C (second compound 3.16 µM, first compound 10 µM): 1.38%
viability, T/C [11]: 2.16%
viability, T/C [12]: 2.09%
viability, T/C (second compound 10 µM, first compound 0.316 µM): 1.92%
viability, T/C (second compound 10 µM, first compound 1 µM): 2.08%
viability, T/C (second compound 10 µM, first compound 3.16 µM): 1.25%
viability, T/C (second compound 10 µM, first compound 10 µM): 0.24%
